Assay results from ChEMBL document CHEMBL1833912, “Discovery of PF-184563, a potent and selective V1a antagonist for the treatment of dysmenorrhoea. The influence of compound flexibility on microsomal stability” (Bioorg Med Chem Lett, 2011).

What was measured:
Format in all cases: ADME, organism-based
Settings in all cases: in vivo
[1] = tested on: Rattus norvegicus; assay: Volume of distribution in Sprague-Dawley rat at 2 mg/kg, iv and po; set-up: dose 2 mg/kg, route oral
[2] = Cmax in Sprague-Dawley rat at 2 mg/kg, iv and po; set-up: dose 2 mg/kg, route oral
[3] = Bioavailability in Sprague-Dawley rat at 2 mg/kg, iv and po
[4] = Tmax in Sprague-Dawley rat at 2 mg/kg, iv and po; set-up: dose 2 mg/kg, route oral

Work on `CN1Cc2cc(Cl)ccc2-n2c(nnc2C2CCN(c3ccccn3)CC2)C1` yielded a Vd [1] of 2.7 L/kg, a Cmax [2] of 97 ng/mL and a bioavailability [3] of 34%. It also gave a Tmax [4] of 48 min.
